In US20260014153A1, “ELACESTRANT IN COMBINATION WITH ABEMACICLIB IN WOMEN WITH BREAST CANCER” (RADIUS PHARMACEUTICALS, INC., priority 2018, published 2026):

Key:
ERα = target: T1, ERα (Homo sapiens, UniProt P03372); settings: cited from earlier work
T1 sequence (P03372 1-595): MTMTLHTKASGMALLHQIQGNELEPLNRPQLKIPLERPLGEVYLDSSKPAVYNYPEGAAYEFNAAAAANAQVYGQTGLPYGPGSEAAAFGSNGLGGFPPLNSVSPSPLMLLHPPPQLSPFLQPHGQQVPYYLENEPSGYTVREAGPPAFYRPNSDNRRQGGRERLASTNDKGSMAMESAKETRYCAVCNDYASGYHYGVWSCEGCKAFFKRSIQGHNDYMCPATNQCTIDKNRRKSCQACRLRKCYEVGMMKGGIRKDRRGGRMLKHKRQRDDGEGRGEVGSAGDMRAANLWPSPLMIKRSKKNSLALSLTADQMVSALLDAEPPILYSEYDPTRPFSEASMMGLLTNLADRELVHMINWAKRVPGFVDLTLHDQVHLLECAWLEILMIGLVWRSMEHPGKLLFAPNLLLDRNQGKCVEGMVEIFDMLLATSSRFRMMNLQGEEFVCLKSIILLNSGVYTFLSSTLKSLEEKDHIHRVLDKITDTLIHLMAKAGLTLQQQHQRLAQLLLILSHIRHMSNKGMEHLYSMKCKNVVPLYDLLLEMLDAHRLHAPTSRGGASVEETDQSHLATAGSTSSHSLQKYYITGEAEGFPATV

breast cancer tumor = test: animal xenograft model of breast cancer; settings: in vivo
[1] = tested on: tumors expressing wild-type ERα; test: growth of tumors expressing wild-type ERα; assay type: in vivo
[2] = standardized uptake value in tissues not significantly expressing ER; assay type: in vivo, human; settings: 200 mg or up to 500 mg q.d.; uterus, muscle, bone tissues not significantly expressing ER
[3] = target: T2, ER in the uterus and pituitary (Homo sapiens, UniProt P03372); test: estradiol binding to ER by FES-PET imaging; assay type: in vivo; settings: uterine and pituitary tissue
T2 construct: from tissue; host or cells: uterus and pituitary, in vivo
T2 sequence (P03372 1-595): T1 sequence (P03372 1-595)
Experimental: In these experiments, estradiol binding to ER in uterine and pituitary tissue was evaluated by FES-PET imaging.

[4] = half life after PO dosing; assay type: in vivo; settings: humans
[5] = tested on: brain metastasis xenograft; test: brain metastasis xenograft model; settings: in vivo
uterine tissues = test: estradiol stimulation of uterine tissues in ovariectomized rats; assay type: in vivo
[6] = tested on: ER+ breast cancer with both wild-type and mutant ESR1; settings: models of ER+ breast cancer, single agent and in combination with a CDK4/6 inhibitor; cited from earlier work
ER+ breast cancer = settings: monotherapy; models including fulvestrant-insensitive, estrogen-independent and/or ESR1-mutant; cited from earlier work
[7] = tested on: tumors expressing Y537S ERα; test: growth of tumors expressing mutant ERα; assay type: in vivo
[8] = bone loss in ovariectomized rats; assay type: in vivo

**Q.** What does the source list for `CCNCCc1ccc(CN(CC)c2cc(OC)ccc2[C@@H]2CCc3cc(O)ccc3C2)cc1` [RAD1901]?
**A.** binding preference ERα versus ERβ (ERα): preferentially bind ERα; accumulation within tumor cells (breast cancer tumor): significant accumulation; breast cancer tumor growth (breast cancer tumor): inhibiting breast cancer tumor growth; inhibition of tumor growth [1]: inhibit tumor growth; change in standardized uptake value (SUV) pre- and post-treatment [2]: hardly any changes; observed level of ER binding after treatment [3]: at or below background levels; half life [4]: surprisingly long half life; blood-brain barrier penetration [5]: capable of penetrating the blood-brain barrier; survival [5]: significantly prolonged survival; estradiol stimulation of uterine tissues (uterine tissues): antagonized estradiol stimulation; inhibition of tumor growth [6]: effective in inhibiting tumor growth; antitumor activity (ER+ breast cancer): demonstrated antitumor activity; inhibition of tumor growth [7]: unexpected ability to inhibit the growth of tumors; bone loss [8]: protects against bone loss
